Data on seven compounds can be found in ChEMBL document CHEMBL4334533, “Design, synthesis, and validation of novel nitrogen-based chalcone analogs against triple negative breast cancer” (Eur J Med Chem, 2020).

Series [1] has as its system MDA-MB-231. As to the kind of experiment: Antimigratory activity in human MDA-MB-231 cells assessed as wound diameter at 5 uM measured after 24 hrs by microscopic analysis. Format: functional, cell-based.
Series [2] has as its system MDA-MB-231. As to the kind of experiment: Antimigratory activity in human MDA-MB-231 cells assessed as inhibition of cell motility after 24 hrs by microscopic analysis. The class given is functional, cell-based. The following applies: MDA-MB-231, 24 h.
Series [3] relates to MDA-MB-468. As to the kind of experiment: Inhibition of anchorage-independent colony formation in human MDA-MB-468 cells at 5 uM measured upto 21 days by soft agar colony formation assay. Format: functional, cell-based.
Series [4] relates to MDA-MB-231. The series is described as follows: Inhibition of anchorage-independent colony formation in human MDA-MB-231 cells at 5 uM measured upto 21 days by soft agar colony formation assay. The class given is functional, cell-based.
Series [5] has as its system MCF7. The series is described as follows: Inhibition of anchorage-independent colony formation in human MCF7 cells at 5 uM measured upto 21 days by soft agar colony formation assay. Format: functional, cell-based.
For a further series, the system named is Chorioallantoic membrane. The series is described as follows: Antiangiogenic activity in Leghorn chicken fertilized egg chorioallantoic membrane assessed as reduction in number of blood vessels at 4 ug measured after 4 days by microscopic analysis. Format: functional, tissue-based. Conditions: Gallus gallus.
Series [6] deals with MCF7. As to the kind of experiment: Antiproliferative activity against human MCF7 cells assessed as inhibition of cell growth measured after 48 hrs by microplate reader analysis. Format: functional, cell-based. Conditions: MCF7, 48 h.
Series [7] deals with MCF7. As to the kind of experiment: Antiinvasive activity in human MCF7 cells assessed as reduction in 10% FBS-induced cell invasion at 10 uM by crystal violet staining based matrigel assay relative to control. The class given is functional.
Series [8] can be described thus: Selectivity index, ratio of LD50 for E6/E7 immortalized human HNME cells to IC50 for human MCF7 cells.
A short description of series [9]: Selectivity index, ratio of LD50 for E6/E7 immortalized human HNME cells to IC50 for human MDA-MB-231 cells.
Series [10] concerns MCF7. The series is described as follows: Induction of morphological changes in human MCF7 cells assessed as mesenchymal-epithelial transition at 10 uM by inverted microscopic analysis. The class given is functional, cell-based.
Series [11] concerns MDA-MB-231. The series is described as follows: Growth inhibition in human MDA-MB-231 cells at 10 uM after 48 hrs by MTT assay. The class given is functional, cell-based.
In series [12] the test system is MDA-MB-231. As to the kind of experiment: Antiproliferative activity against human MDA-MB-231 cells assessed as inhibition of cell growth measured after 48 hrs by microplate reader analysis. The class given is functional, cell-based. The following applies: MDA-MB-231, 48 h.
In series [13] the test system is MDA-MB-231. The series is described as follows: Antiinvasive activity in human MDA-MB-231 cells assessed as reduction in 10% FBS-induced cell invasion at 10 uM by crystal violet staining based matrigel assay relative to control. Format: functional. Also noted: scale not given: the % may be the effect or the level left.
Series [14] has as its system MDA-MB-468. As to the kind of experiment: Induction of morphological changes in human MDA-MB-468 cells assessed as mesenchymal-epithelial transition at 10 uM by inverted microscopic analysis. Format: functional, cell-based.
Series [15] deals with MCF7. As to the kind of experiment: Growth inhibition in human MCF7 cells at 10 uM after 48 hrs by MTT assay. Format: functional, cell-based. On the technique in general: Tetrazolium assays rely on reduction of a dye to a coloured formazan, in cell work by metabolically active cells.
For series [16], the system named is MDA-MB-231. The series is described as follows: Cell cycle arrest in human MDA-MB-231 cells assessed as accumulation at S phase at 10 uM measured after 48 hrs by propidium iodide staining-based flow cytometric analysis relative to control. The class given is functional. Background: A flow cytometer gives signals particle by particle.
The nature of series [17]: Selectivity index, ratio of LD50 for E6/E7 immortalized human HNME cells to IC50 for human MDA-MB-468 cells.
Series [18] concerns MDA-MB-231. As to the kind of experiment: Induction of morphological changes in human MDA-MB-231 cells assessed as mesenchymal-epithelial transition at 10 uM by inverted microscopic analysis. The class given is functional, cell-based.
The subject of series [19] is MDA-MB-468. As to the kind of experiment: Antiinvasive activity in human MDA-MB-468 cells assessed as reduction in 10% FBS-induced cell invasion at 10 uM by crystal violet staining based matrigel assay relative to control. The class given is functional.
Series [20] can be described thus: Cytotoxicity against E6/E7 immortalized human HNME cells assessed as inhibition of cell growth measured after 48 hrs by microplate reader analysis. The class given is cell-based. Conditions: read-out: LD50.
Series [21] deals with MDA-MB-468. The series is described as follows: Antiproliferative activity against human MDA-MB-468 cells assessed as inhibition of cell growth measured after 48 hrs by microplate reader analysis. Format: functional, cell-based. The following applies: MDA-MB-468, 48 h.
In series [22] the test system is MDA-MB-468. As to the kind of experiment: Cell cycle arrest in human MDA-MB-468 cells assessed as accumulation at S phase at 10 uM measured after 48 hrs by propidium iodide staining-based flow cytometric analysis relative to control. The class given is functional.

Calls of active or inactive are those of the source. No cut-off for these calls is given here.

For `CC(=O)O[C@H]1C(=O)[C@@]2(C)[C@H]([C@H](OC(=O)c3ccccc3)[C@]3(O)C[C@H](OC(=O)[C@H](O)[C@@H](NC(=O)c4ccccc4)c4ccccc4)C(C)=C1C3(C)C)[C@]1(OC(C)=O)CO[C@@H]1C[C@@H]2O` [PACLITAXEL], the outcome in the series with MDA-MB-231 [1] was Active. Further, the IC50 in the series on MDA-MB-231 [2] turned out to be 2.01 µM. For the same compound, the “colony formation inhibition (active/inactive)” value with MDA-MB-468 [3] is “Active”. Moreover, the inhibition result in the series with MDA-MB-231 [4] was “Active”. Also, the “colony formation inhibition (activity call)” value in the series on MCF7 [5] was “Active”.

For the compound `COc1ccccc1C(=O)/C=C/c1ccc(N(CCCl)CCCl)cc1`, in the series with MDA-MB-231 [1], the outcome was Active. Besides, the IC50 in the series on MDA-MB-231 [2] came out at 2.86 µM.

With `CSc1ccc(C(=O)/C=C/c2ccc(N3CCOCC3)cc2)cc1`, the outcome in the series on MDA-MB-231 [1] and with Chorioallantoic membrane was Active. For the same compound, the half-inhibitory concentration (IC50) in the series with MDA-MB-231 [2] is 4.8 µM.

Take `CS(=O)(=O)c1ccc(C(=O)/C=C/c2ccc(N(CCCl)CCCl)cc2)cc1`: the outcome in the series on MDA-MB-231 [1], in the series with MCF7 [7], in the series with MCF7 [10], in the series with Chorioallantoic membrane, with MDA-MB-468 [14] and in the series on MDA-MB-231 [18] was Active. Besides, the outcome with MDA-MB-468 [19] was Active. Also, the IC50 was determined as 6.14 µM in the series on MDA-MB-231 [2], 14.1 µM with MCF7 [6], 7.44 µM in the series on MDA-MB-231 [12] and 13.3 µM in the series with MDA-MB-468 [21]. In addition, the “Ratio LD50/IC50” value in series [8] was 2.08; in series [9], 3.95; in [17], 2.21. The “colony formation inhibition (active/inactive)” value with MDA-MB-468 [3] was “Active”. Further, the “growth inhibition (GI)” value with MDA-MB-231 [11] and in the series on MCF7 [15] was “Active” in each case. The inhibition result in the series on MDA-MB-231 [4] was “Active”. In addition, the results for the Activity with MDA-MB-231 [13], with MDA-MB-231 [16] and in the series on MDA-MB-468 [22] were 80%, 28.7% and 46.8%, respectively. The “colony formation inhibition (activity call)” value in the series on MCF7 [5] was “Active”. In addition, in series [20], the CC50 at 48 h is 29.4 µM.

As for `COc1cc2c(c(OC)c1OC)-c1ccc(OC)c(=O)cc1[C@@H](NC(C)=O)CC2`, the outcome in the series on MDA-MB-231 [1] was Active. In addition, the “colony formation inhibition (active/inactive)” value with MDA-MB-468 [3] is “Active”. In addition, the inhibition entry in the series with MDA-MB-231 [4] and in the series on MCF7 [5] was “Active” in each case.

Regarding `COc1cccc(C(=O)/C=C/c2ccc(N3CCCC3)cc2)c1`, the outcome with MDA-MB-231 [1] was Active. Besides, the IC50 with MDA-MB-231 [2] turned out to be 1.99 µM.

Consider `O=C(/C=C/c1ccc(N2CCCC2)cc1)c1ccc2c(c1)OCO2`, for which the result in the series on MDA-MB-231 [1] was Active. Moreover, the half-maximal inhibitory concentration (IC50) in the series on MDA-MB-231 [2] is 5.71 µM.

As usually defined, the IC50 is the midpoint of a concentration-inhibition curve.
